Patent EP2338485A1, “Substituted 1,3-dioxoisoindolines as medicine” (Grünenthal GmbH, priority 2009, dated 2011)
Like-named read-outs stand apart in the source and are kept apart here.

System: vGLUT1- bzw. vGLUT2-Transporter
Assay: Glutamate uptake into rat crude synaptic vesicles ([3H]-glutamate uptake)
Format: biochemical, Ratte
Details: for VGLUT (Ratte), Hemmung [%]: test concentration not given
Source text: I. Funktionelle Untersuchung an den vGLUT1- bzw. vGLUT2-Transportern
Die agonistische bzw. antagonistische Wirkung der zu untersuchenden Verbindungen am vGLUT1- bzw. vGLUT2-Transporter der Spezies Ratte kann mit folgendem Assay bestimmt werden.
Glutamat-Uptake in Rattenvesikel ('rat crude synaptic vesicles')
Die Präparation von Vesikeln wurde aus Rattengehirn-homogenaten (männlichen Ratten, Stamm Wistar SPF, 150-250 g Gewicht) durchgeführt gemäß Roseth et al. (1995) J. Neurochem. 65: 96-103, der sich auf Whittaker et al. (1964) Biochem J. 90, 293-303 und Fykse und Fonnum (1988) J. Neurochem. 50: 1237-1242 bezieht.
Hierzu wurden frisch entnommene Rattengehirne in 0,32 M Saccharose, 10 mM TRIS-maleat, 1 mM EGTA, pH 7,4 (10 ml/g Frischgewicht) mit einem Potter-Homogenisator (Fa. Braun/Melsungen; 5 Kolbenhübe bei 800 Upm) unter Eiskühlung homogenisiert und anschließend für 10 Minuten bei 3.000 g und 4°C zentrifugiert. Der resultierende Überstand wurde bei 20.000 g für 30 Minuten bei 4°C zentrifugiert. Das entstandene Pellet wurde dann im Verhältnis 1:3 mit 10 mM TRIS-maleate, 0,1 mM EGTA, pH 7,4 osmotisch geschockt und die Suspension bei 17000g für 30 min (4°C) zentrifugiert. Die im Überstand verbliebenen Vesikel wurden nun auf einen Dichtegradienten aus 0,6 M Saccharose in 10 mM TRIS-maleat, 1 mM EGTA, pH 7.4 und 0.4 M Saccharose in 10 mM TRIS-maleat, 1 mM EGTA, pH 7.4 geschichtet. Eine Ultrazentrifugation der Gradienten im Ausschwingrotor bei 65000g für 2h (4°C) schloss sich an. Die Vesikel-Fraktion wurde von der 0.4 M Saccharose-Bande isoliert und im Uptake-Versuch eingesetzt.
Die Substratlösung für den Uptake von [^3H]-Glutamat bestand aus ATP (neutralisiert mit Trisma base; 2 mM im Endansatz), Glutamat (0.5 mM im Endansatz) und ^3H-Glutamat (0.5 µCi im Endansatz). In 14 ml-Reagiergefäßen (Sarstedt, Artikel-Nr.: 798438) wurden jeweils 0,3 ml Gesamtvolumina (n=2/Probe) pipettiert in der folgenden Reihenfolge: 1.) 165 µl Inkubationspuffer (110 mM Kaliumtartrat, 10 mM TRIS-maleat, pH 7,4, 4 mM MgCl2), 2.) 10 µl Testsubstanz oder Vehikelkontrolle oder blank, 3.) 100 µl synaptische Vesikel. Es schloss sich eine Vorinkubation von 15 min bei 30°C an (nur blank-Ansätze befanden sich hierbei auf Eis). Danach wurde der Uptake durch Zugabe von 25 µl der oben beschriebenen Substratlösung gestartet. Die Reaktion wurde nach 5 min durch Zugabe von 7,0 ml eiskalter 150 mM KCI gestoppt. Anschließend wurden die Proben mit Hilfe des Brandel Cell Harvesters Typ M-24R über einen Membranfilter der Porengröße 0,8 µm abgesaugt und zweimal mit eiskalter 150 mM KCI nachgewaschen. Die Messung erfolgte am beta-Counter nach 15 h in 10 ml Szintillatorflüssigkeit (Filter Count).
Die Affinität der Verbindungen der allgemeinen Formel (I) für den vGLUT1- bzw. vGLUT2-Transporter wurde wie vorstehend beschrieben bestimmt (Pharmakologische Methoden)

[1] = compound freshly dissolved from the solid substance, read-out: VGLUT (Ratte), ICso-Fest

SMILES | IC50 [1] [nM] | IC50 (read-out: VGLUT (Ratte), IC50) [nM] | VGLUT (Ratte), Hemmung [%]
O=C(Nc1ccc(O)cc1C(=O)O)c1ccc(N2C(=O)c3ccc(C(=O)Nc4ccc(O)cc4C(=O)O)cc3C2=O)cc1 [Beispiel 2, 2-(4-(5-(2-Carboxy-4-hydroxyphenylcarbamoyl)-1,3-dioxoisoindolin-2-yl)benzamido)-5-hydroxybenzoesäure] | 32 | 94.6 | 98
O=C(Nc1ccc(O)cc1C(=O)O)c1ccc(N2C(=O)c3ccc(C(=O)Nc4ccc(O)cc4C(=O)O)cc3C2=O)cc1 [Beispiel 4, 2-(4-(5-(2-Carboxylato-4-hydroxyphenylcarbamoyl)-1,3-dioxoisoindolin-2-yl)-benzamido)-5-hydroxybenzoesäure, Natriumsalz] | 154 | – | –
O=C(Nc1ccccc1C(=O)O)c1cccc(N2C(=O)c3ccc(C(=O)Nc4ccccc4C(=O)O)cc3C2=O)c1 [Beispiel 3, 2-(3-(5-(2-Carboxyphenylcarbamoyl)-1,3-dioxoisoindolin-2-yl)benzamido)-benzoesäure] | – | 560 | 97
O=C(O)c1ccccc1N1C(=O)c2ccc(Oc3ccc(Oc4ccc5c(c4)C(=O)N(c4ccccc4C(=O)O)C5=O)cc3)cc2C1=O [Beispiel 1, 2,2'-(5,5'-(1,4-Phenylenbis(oxy))bis(1,3-dioxoisoindolin-5,2-diyl))dibenzoesäure] | – | 3810 | 74
